HELM strings list units from the 5' end as sugar, base in round brackets, then linkage (d deoxyribose, r ribose, m 2'-O-methyl, p phosphodiester). Strings are as the collection lists them; they lack the last nucleoside at the 3' end of the tested compound. [moe] = 2'-O-(2-methoxyethyl) (MOE); [sp] = phosphorothioate linkage; [m5C] = 5-methylcytosine

This series deals with SCN2A. Description: mouse, dose not given. The following applies: ASO.
“RNA1{[moe](T)[sp].[moe]([m5C])p.[moe](T)p.[moe](A)[sp].d(T)[sp].d(T)[sp].d(T)[sp].d(T)[sp].d(A)[sp].d(T)[sp].d(A)[sp].d(A)[sp].[moe](A)p.[moe](T)p.[moe](G)p.[moe]([m5C])[sp].[moe]([m5C])}$$$$ (last 3' nucleoside missing)” had a 3 h FOB score of 1 score 0-7.

Substance “RNA1{[moe](A)[sp].[moe](T)p.[moe](T)p.[moe](T)p.[moe]([m5C])p.[moe](T)p.d(A)[sp].d(T)[sp].d(A)[sp].d(A)[sp].d([m5C])[sp].d(T)[sp].d([m5C])[sp].d(A)[sp].d(G)[sp].d([m5C])[sp].[moe](A)p.[moe](A)[sp].[moe]([m5C])}$$$$ (last 3' nucleoside missing)” came in with a 3 h FOB score of 1 score 0-7.

The substance “RNA1{[moe](G)[sp].[moe](T)p.[moe]([m5C])p.[moe](T)p.[moe]([m5C])p.d(T)[sp].d(T)[sp].d(T)[sp].d([m5C])[sp].d(T)[sp].d(T)[sp].d(A)[sp].d(T)[sp].d(T)[sp].d(T)[sp].[moe]([m5C])p.[moe](T)p.[moe](G)[sp].[moe](T)}$$$$ (last 3' nucleoside missing)” showed a 3 h FOB score of 1 score 0-7.

Take “RNA1{[moe](G)[sp].[moe](G)p.[moe](A)p.[moe](T)p.[moe](A)p.d(G)[sp].d(T)[sp].d(G)[sp].d([m5C])[sp].d(T)[sp].d([m5C])[sp].d([m5C])[sp].d(A)[sp].d(T)[sp].d(A)[sp].[moe](G)p.[moe]([m5C])p.[moe]([m5C])[sp].[moe](A)}$$$$ (last 3' nucleoside missing)”: the 3 h FOB score was 2 score 0-7.

For the substance “RNA1{[moe](T)[sp].[moe](G)p.[moe](G)p.[moe](G)p.[moe](T)p.d([m5C])[sp].d(T)[sp].d([m5C])[sp].d(T)[sp].d(T)[sp].d(A)[sp].d(G)[sp].d([m5C])[sp].d(T)[sp].d(T)[sp].[moe](T)p.[moe]([m5C])p.[moe](T)[sp].[moe]([m5C])}$$$$ (last 3' nucleoside missing)”, the 3 h FOB score worked out at 1.33 score 0-7.

“RNA1{[moe](G)[sp].[moe](A)p.[moe]([m5C])p.[moe]([m5C])p.[moe](A)p.[moe]([m5C])p.d(G)[sp].d([m5C])[sp].d(T)[sp].d(T)[sp].d(A)[sp].d([m5C])[sp].d(A)[sp].d(T)[sp].d([m5C])[sp].d(A)[sp].[moe](A)p.[moe](A)[sp].[moe]([m5C])}$$$$ (last 3' nucleoside missing)” returned a 3 h FOB score of 0 score 0-7.

“RNA1{[moe](G)[sp].[moe](A)p.[moe](A)p.[moe](T)p.[moe](T)p.d([m5C])[sp].d(T)[sp].d(A)[sp].d(T)[sp].d(T)[sp].d(T)[sp].d(T)[sp].d(A)[sp].d(T)[sp].d(A)[sp].[moe](A)p.[moe](A)p.[moe](T)[sp].[moe](G)}$$$$ (last 3' nucleoside missing)” registered a 3 h FOB score of 1 score 0-7.

Substance “RNA1{[moe](A)[sp].[moe]([m5C])p.[moe]([m5C])p.[moe](A)p.[moe]([m5C])p.d(G)[sp].d([m5C])[sp].d(T)[sp].d(T)[sp].d(A)[sp].d([m5C])[sp].d(A)[sp].d(T)[sp].d([m5C])[sp].d(A)[sp].[moe](A)p.[moe](A)p.[moe]([m5C])[sp].[moe](A)}$$$$ (last 3' nucleoside missing)” returned a 3 h FOB score of 0.33 score 0-7.

Consider “RNA1{[moe]([m5C])[sp].[moe](A)p.[moe](T)p.[moe](A)p.[moe](A)p.[moe](T)p.d([m5C])[sp].d([m5C])[sp].d([m5C])[sp].d(A)[sp].d(T)[sp].d(T)[sp].d(A)[sp].d(T)[sp].d(A)[sp].d([m5C])[sp].[moe](A)p.[moe](A)[sp].[moe](A)}$$$$ (last 3' nucleoside missing)”, for which the 3 h FOB score came out at 0 score 0-7.

On to “RNA1{[moe]([m5C])[sp].[moe](A)p.[moe](T)p.[moe](G)p.[moe](T)p.[moe](A)p.d(A)[sp].d(T)[sp].d([m5C])[sp].d(A)[sp].d([m5C])[sp].d(T)[sp].d(T)[sp].d(T)[sp].d([m5C])[sp].d(A)[sp].[moe](T)p.[moe]([m5C])[sp].[moe]([m5C])}$$$$ (last 3' nucleoside missing)”, for which the 3 h FOB score was 0 score 0-7.

Regarding “RNA1{[moe](G)[sp].[moe](A)p.[moe]([m5C])p.[moe]([m5C])p.[moe](G)p.d(T)[sp].d([m5C])[sp].d(T)[sp].d([m5C])[sp].d(T)[sp].d(T)[sp].d(T)[sp].d([m5C])[sp].d(T)[sp].d(T)[sp].[moe](A)p.[moe](T)p.[moe](T)[sp].[moe](T)}$$$$ (last 3' nucleoside missing)”, the 3 h FOB score is 0 score 0-7.

As for “RNA1{[moe]([m5C])[sp].[moe]([m5C])p.[moe](A)p.[moe]([m5C])p.[moe](G)p.[moe](A)p.d([m5C])[sp].d(A)[sp].d(T)[sp].d(A)[sp].d(T)[sp].d(T)[sp].d(T)[sp].d(T)[sp].d(T)[sp].d([m5C])[sp].[moe](T)p.[moe](A)[sp].[moe]([m5C])}$$$$ (last 3' nucleoside missing)”, the 3 h FOB score was found to be 0 score 0-7.

The substance “RNA1{[moe]([m5C])[sp].[moe]([m5C])p.[moe](A)p.[moe](G)p.d(T)[sp].d(T)[sp].d(T)[sp].d(T)[sp].d(T)[sp].d(T)[sp].d([m5C])[sp].d(A)[sp].d(T)[sp].d(T)[sp].[moe](G)p.[moe]([m5C])p.[moe](A)p.[moe](T)[sp].[moe]([m5C])}$$$$ (last 3' nucleoside missing)” displayed a 3 h FOB score of 0 score 0-7.

Take “RNA1{[moe]([m5C])[sp].[moe](T)p.[moe]([m5C])p.[moe](T)p.[moe](T)p.d(T)[sp].d([m5C])[sp].d(T)[sp].d(T)[sp].d(A)[sp].d(T)[sp].d(T)[sp].d(T)[sp].d([m5C])[sp].d(T)[sp].[moe](G)p.[moe](T)p.[moe](T)[sp].[moe](T)}$$$$ (last 3' nucleoside missing)”: the 3 h FOB score was determined as 0 score 0-7.

With “RNA1{[moe](T)[sp].[moe](T)p.[moe](T)p.[moe](G)p.[moe]([m5C])p.[moe]([m5C])p.d(A)[sp].d(T)[sp].d(T)[sp].d(T)[sp].d([m5C])[sp].d(T)[sp].d(A)[sp].d(T)[sp].d(A)[sp].d(A)[sp].[moe]([m5C])p.[moe](T)[sp].[moe]([m5C])}$$$$ (last 3' nucleoside missing)”, the 3 h FOB score stood at 0 score 0-7.

Turning to “RNA1{[moe](A)[sp].[moe](G)p.[moe]([m5C])p.[moe](A)p.d(T)[sp].d(A)[sp].d(T)[sp].d(T)[sp].d([m5C])[sp].d(T)[sp].d(A)[sp].d(A)[sp].d([m5C])[sp].d(A)[sp].[moe](T)p.[moe](G)p.[moe](G)p.[moe](T)[sp].[moe]([m5C])}$$$$ (last 3' nucleoside missing)”, the 3 h FOB score was 0 score 0-7.

On to “RNA1{[moe](A)[sp].[moe]([m5C])p.[moe](T)p.[moe](G)p.[moe](G)p.d([m5C])[sp].d(T)[sp].d(A)[sp].d(T)[sp].d(A)[sp].d([m5C])[sp].d(T)[sp].d([m5C])[sp].d(A)[sp].d(T)[sp].[moe](T)p.[moe](G)p.[moe]([m5C])[sp].[moe](T)}$$$$ (last 3' nucleoside missing)”, for which the 3 h FOB score is 1.33 score 0-7.

“RNA1{[moe]([m5C])[sp].[moe](T)p.[moe](A)p.[moe](T)p.[moe](T)[sp].d(T)[sp].d(T)[sp].d(A)[sp].d(T)[sp].d(A)[sp].d(A)[sp].d(A)[sp].d(T)[sp].[moe](G)p.[moe]([m5C])p.[moe]([m5C])[sp].[moe](G)}$$$$ (last 3' nucleoside missing)” returned a 3 h FOB score of 0 score 0-7.

In the case of “RNA1{[moe]([m5C])[sp].[moe]([m5C])p.[moe](A)p.[moe](G)p.[moe](T)p.d(T)[sp].d(T)[sp].d(T)[sp].d(T)[sp].d(T)[sp].d([m5C])[sp].d(A)[sp].d(T)[sp].d(T)[sp].d(G)[sp].[moe]([m5C])p.[moe](A)p.[moe](T)[sp].[moe]([m5C])}$$$$ (last 3' nucleoside missing)”, the 3 h FOB score was 1.33 score 0-7.

Consider “RNA1{[moe](T)[sp].[moe]([m5C])p.[moe](A)p.[moe](G)p.[moe]([m5C])p.[moe](A)p.d(T)[sp].d(G)[sp].d(T)[sp].d(T)[sp].d(T)[sp].d(A)[sp].d(T)[sp].d([m5C])[sp].d(T)[sp].d(T)[sp].[moe](A)p.[moe](G)[sp].[moe](T)}$$$$ (last 3' nucleoside missing)”, for which the 3 h FOB score was 0 score 0-7.

In the case of “RNA1{[moe](A)[sp].[moe](T)p.[moe](T)p.[moe]([m5C])p.d(T)[sp].d(A)[sp].d(T)[sp].d(T)[sp].d(T)[sp].d(T)[sp].d(A)[sp].d(T)[sp].d(A)[sp].d(A)[sp].[moe](A)p.[moe](T)p.[moe](G)p.[moe]([m5C])[sp].[moe]([m5C])}$$$$ (last 3' nucleoside missing)”, the 3 h FOB score stood at 2.67 score 0-7.

For “RNA1{[moe]([m5C])[sp].[moe]([m5C])p.[moe](A)p.[moe]([m5C])p.[moe](G)p.[moe]([m5C])p.d(T)[sp].d(T)[sp].d(A)[sp].d([m5C])[sp].d(A)[sp].d(T)[sp].d([m5C])[sp].d(A)[sp].d(A)[sp].d(A)[sp].[moe]([m5C])p.[moe](A)[sp].[moe](T)}$$$$ (last 3' nucleoside missing)”, the 3 h FOB score was 0 score 0-7.

As to “RNA1{[moe]([m5C])[sp].[moe](A)p.[moe](T)p.[moe](A)p.[moe](T)p.d(T)[sp].d(T)[sp].d(T)[sp].d(T)[sp].d([m5C])[sp].d(T)[sp].d(A)[sp].d([m5C])[sp].d(A)[sp].d([m5C])[sp].[moe](T)p.[moe](G)p.[moe]([m5C])[sp].[moe](T)}$$$$ (last 3' nucleoside missing)”, the 3 h FOB score was 2 score 0-7.

“RNA1{[moe]([m5C])[sp].[moe](T)p.[moe](G)p.[moe]([m5C])p.d(A)[sp].d(T)[sp].d(G)[sp].d(T)[sp].d(A)[sp].d(A)[sp].d([m5C])[sp].d([m5C])[sp].d(T)[sp].d(T)[sp].[moe](T)p.[moe](A)p.[moe](T)p.[moe](A)[sp].[moe]([m5C])}$$$$ (last 3' nucleoside missing)” yielded a 3 h FOB score of 0 score 0-7.

“RNA1{[moe](G)[sp].[moe]([m5C])p.[moe](T)p.[moe](T)p.[moe](T)p.d([m5C])[sp].d([m5C])[sp].d([m5C])[sp].d(T)[sp].d(T)[sp].d(T)[sp].d(A)[sp].d(T)[sp].d(T)[sp].d([m5C])[sp].[moe](A)p.[moe](A)p.[moe](T)[sp].[moe](A)}$$$$ (last 3' nucleoside missing)” had a 3 h FOB score of 0 score 0-7.
